20 compounds from patent EP4755886A1 (Chengdu Chipscreen Pharmaceutical Ltd., priority 2023, dated 2025) can be followed below.

One assay concerns wild-type HCT-116 cells. The experiment in a line: Cell proliferation (MTS), wild-type HCT-116. Conditions: Homo sapiens, 240 h; wild-type HCT-116, 10 days with compound, MTS reading; read-out: IC50 HCT116 WT. In kind it is cell-based. The gist of the method:
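Wild-type HCT-116 cells were seeded at 100 cells/well in McCoy's 5A/10% FBS. From day 1 they were treated with compound in 3-fold dilutions (initial 20 µM, 8 points) for 10 days at 37° C. Proliferation was read by MTS on day 11, and IC50 was obtained from a four-parameter logistic fit.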

The next assay deals with MTAP^-/- HCT-116 cells. In words: Cell proliferation (MTS), MTAP-/- HCT-116. Type of assay: cell-based, human. The following applies: for Selectivity: HCT116 WT IC50 relative to HCT116 MTAP-/- IC50; for IC50: Homo sapiens, 240 h, MTAP-/- HCT-116, 10 days with compound, MTS reading, read-out: IC50 HCT116 MTAP-/-. The procedure, abridged: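 MTAP-/- (CRISPR/Cas9 biallelic knockout) or wild-type HCT-116 cells seeded at 100 cells/well, treated next day with 8-point 3-fold dilutions (top 20 µM) for 10 days at 37 °C, 5% CO2. Viability read by MTS; IC50 from four-parameter logistic fit of inhibition rate vs log concentration.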

Turning to `Cc1ccncc1C#Cc1ccc2c(c1)OCC2N(C)C(=O)c1cc2c(cc1F)nc(N)c1cnn(C)c12` (stereo not drawn) [Compound 44, 4-amino-7-fluoro-N,1-dimethyl-N-(6-((4-methylpyridin-3-yl)ethynyl)-2,3-dihydrobenzofuran-3-yl)-1H-pyrazolo[4,3-c]quinoline-8-carboxamide], in the assay with wild-type HCT-116 cells, the IC50 was 736 nM. In addition, in the assay with MTAP^-/- HCT-116 cells, the Selectivity was 67 and the IC50 amounted to 11 nM.

As to `Cc1ncccc1C#Cc1ccc2c(c1)OC[C@H]2N(C)C(=O)c1cc2c(cc1F)nc(N)c1cnn(C)c12` [Compound 45A, (S)-4-amino-7-fluoro-N,1-dimethyl-N-(6-((2-methylpyridin-3-yl)ethynyl)-2,3-dihydrobenzofuran-3-yl)-1H-pyrazolo[4,3-c]quinoline-8-carboxamide], in the assay on wild-type HCT-116 cells, the IC50 was 213 nM. Besides, in the assay on MTAP^-/- HCT-116 cells, the Selectivity was 53 and the IC50 was determined as 4 nM.

For the compound `CN1CCn2c(C#Cc3ccc4c(c3)OCC4N(C)C(=O)c3cc4c(cc3F)nc(N)c3cnn(C)c34)cnc2C1` (stereo not drawn) [Compound 46, 4-amino-7-fluoro-N,1-dimethyl-N-(6-((7-methyl-5,6,7,8-tetrahydroimidazo[1,2-a]pyrazin-3-yl)ethynyl)-2,3-dihydrobenzofuran-3-yl)-1H-pyrazolo[4,3-c]quinoline-8-carboxamide], the IC50 in the assay with wild-type HCT-116 cells was 467 nM. Moreover, in the assay on MTAP^-/- HCT-116 cells, the Selectivity worked out at 156 and the IC50 came out at 3 nM.

With `Cc1cncc(C#Cc2ccc3c(c2)OC[C@H]3N(C)C(=O)c2cc3c(cc2F)nc(N)c2cnn(C)c23)c1` [Compound 47A, (S)-4-amino-7-fluoro-N,1-dimethyl-N-(6-((5-methylpyridin-3-yl)ethynyl)-2,3-dihydrobenzofuran-3-yl)-1H-pyrazolo[4,3-c]quinoline-8-carboxamide], in the assay with wild-type HCT-116 cells, the IC50 amounted to 598 nM. In the assay on MTAP^-/- HCT-116 cells, the Selectivity turned out to be 115 and the IC50 came to 5.2 nM.

As for `CN(C(=O)c1cc2c(cc1F)nc(N)c1cnn(C)c12)[C@@H]1COc2cc(C#Cc3cccnc3)ccc21` [Compound 48A, (S)-4-amino-7-fluoro-N,1-dimethyl-N-(6-(pyridin-3-ylethynyl)-2,3-dihydrobenzof uran-3-yl)-1H-pyrazolo[4,3-c]quinoline-8-carboxamide], the IC50 with wild-type HCT-116 cells was determined as 141 nM. In the assay on MTAP^-/- HCT-116 cells, the Selectivity stood at 71 and the IC50 was found to be 2 nM.

Consider `Cc1nn(C)cc1C#Cc1ccc2c(c1)OC[C@H]2N(C)C(=O)c1ccc2nc(N)c3cnn(C)c3c2c1` [Compound 49A, (S)-4-amino-N-(6-((1,3-dimethyl-1H-pyrazol-4-yl)ethynyl)-2,3-dihydrobenzofuran-3-yl)-N,1-dimethyl-1H-pyrazolo[4,3-c]quinoline-8-carboxamide], for which, in the assay on wild-type HCT-116 cells, the IC50 turned out to be 378 nM. In addition, in the assay with MTAP^-/- HCT-116 cells, the Selectivity was 210 and the IC50 came out at 1.8 nM.

`CN(C(=O)c1cc2c(cc1Cl)nc(N)c1cnn(C)c12)[C@@H]1COc2cc(C#Cc3ccnn3C)ccc21` [Compound 53A, (S)-4-amino-7-chloro-N,1-dimethyl-N-(6-((1-methyl-1H-pyrazol-5-yl)ethynyl)-2,3-dihydrobenzofuran-3-yl)-1H-pyrazolo[4,3-c]quinoline-8-carboxamide]: the IC50 with wild-type HCT-116 cells came out at 45 nM. In addition, in the assay on MTAP^-/- HCT-116 cells, the Selectivity turned out to be 45 and the IC50 was 1 nM.

Turning to `Cc1ccc(C#Cc2ccc3c(c2)OC[C@H]3N(C)C(=O)c2cc3c(cc2Cl)nc(N)c2cnn(C)c23)cn1` [Compound 55A, (S)-4-amino-7-chloro-N,1-dimethyl-N-(6-((6-methylpyridin-3-yl)ethynyl)-2,3-dihydrobenzofuran-3-yl)-1H-pyrazolo[4,3-c]quinoline-8-carboxamide], the IC50 stood at 217 nM with wild-type HCT-116 cells and 5 nM in the assay on MTAP^-/- HCT-116 cells. In the assay on MTAP^-/- HCT-116 cells, the Selectivity stood at 43.

For the compound `CN(C(=O)c1cc2c(cc1Cl)nc(N)c1cnn(C)c12)[C@@H]1COc2cc(C#Cc3cccnc3F)ccc21` [Compound 56A, (S)-4-amino-7-chloro-N-(6-((2-fluoropyridin-3-yl)ethynyl)-2,3-dihydrobenzofuran-3-yl)-N,1-dimethyl-1H-pyrazolo[4,3-c]quinoline-8-carboxamide], the IC50 with wild-type HCT-116 cells was 160 nM. Further, in the assay on MTAP^-/- HCT-116 cells, the Selectivity came to 53 and the IC50 was determined as 3 nM.

`Cc1ccc(C#Cc2ccc3c(c2)OC[C@H]3N(C)C(=O)c2cc3c4c(c(N)nc3cc2Cl)COC4)cn1` [Compound 58A, (S)-4-amino-7-chloro-N-methyl-N-(6-((6-methylpyridin-3-yl)ethynyl)-2,3-dihydrobenzofuran-3-yl)-1,3-dihydrofuro[3,4-c]quinoline-8-carboxamide]: the IC50 with wild-type HCT-116 cells came to 2220 nM. Besides, in the assay on MTAP^-/- HCT-116 cells, the Selectivity came out at 234 and the IC50 was determined as 9.5 nM.

As for `Cc1ccc(C#Cc2ccc3c(c2)OC[C@H]3N(C)C(=O)c2cc3c(cc2F)nc(N)c2cnn(C)c23)cn1` [Compound 59A, (S)-4-amino-7-fluoro-N,1-dimethyl-N-(6-((6-methylpyridin-3-yl)ethynyl)-2,3-dihydrobenzofuran-3-yl)-1H-pyrazolo[4,3-c]quinoline-8-carboxamide], in the assay on wild-type HCT-116 cells, the IC50 came to 305 nM. Moreover, in the assay with MTAP^-/- HCT-116 cells, the Selectivity amounted to 66 and the IC50 amounted to 4.6 nM.

As for `CN(C(=O)c1cc2c(cc1F)nc(N)c1cnn(C)c12)[C@@H]1COc2cc(C#Cc3ccc4cnn(C)c4c3)ccc21` [Compound 60A, (5)-4-amino-7-fluoro-N,1-dimethyl-N-(6-((1-methyl-1H-indazol-6-yl)ethynyl)-2,3-dihydrobenzofuran-3-yl)-1H-pyrazolo[4,3-c]quinoline-8-carboxamide], the IC50 with wild-type HCT-116 cells stood at 486 nM; with MTAP^-/- HCT-116 cells, 8 nM. Besides, in the assay with MTAP^-/- HCT-116 cells, the Selectivity came out at 61.

With `CN(C(=O)c1cc2c3c(c(N)nc2cc1Cl)COC3)[C@@H]1COc2cc(C#Cc3ccc4cnn(C)c4c3)ccc21` [Compound 62A, (S)-4-amino-7-chloro-N-methyl-N-(6-((1-methyl-1H-indazol-6-yl)ethynyl)-2,3-dihydrobenzofuran-3-yl)-1,3-dihydrofuro[3,4-c]quinoline-8-carboxamide], in the assay on wild-type HCT-116 cells, the IC50 amounted to 1260 nM. In the assay with MTAP^-/- HCT-116 cells, the Selectivity came to 79 and the IC50 worked out at 15.9 nM.

As to `Cc1ccncc1C#Cc1ccc2c(c1)OC[C@H]2N(C)C(=O)c1cc2c(cc1Cl)nc(N)c1cnn(C)c12` [Compound 63A, (S)-4-amino-7-chloro-N,1-dimethyl-N-(6-((4-methylpyridin-3-yl)ethynyl)-2,3-dihydrobenzofuran-3-yl)-1H-pyrazolo[4,3-c]quinoline-8-carboxamide], the figures for the IC50 in the assay with wild-type HCT-116 cells and with MTAP^-/- HCT-116 cells were 85 nM and 2 nM, respectively. The Selectivity with MTAP^-/- HCT-116 cells was found to be 43.

Regarding `Cc1cncc(C#Cc2ccc3c(c2)OC[C@H]3N(C)C(=O)c2cc3c(cc2Cl)nc(N)c2cnn(C)c23)c1` [Compound 65A, (S)-4-amino-7-chloro-N,1-dimethyl-N-(6-((5-methylpyridin-3-yl)ethynyl)-2,3-dihydrobenzofuran-3-yl)-1H-pyrazolo[4,3-c]quinoline-8-carboxamide], the IC50 with wild-type HCT-116 cells was determined as 141 nM. Besides, in the assay on MTAP^-/- HCT-116 cells, the Selectivity came to 71 and the IC50 was found to be 2 nM.

Regarding `CN(C(=O)c1cc2c(cc1Cl)nc(N)c1cnn(C)c12)[C@@H]1COc2cc(C#Cc3cnn(C(F)F)c3)ccc21` [Compound 67A, (S)-4-amino-7-chloro-N-(6-((1-(difluoromethyl)-1H-pyrazol-4-yl)ethynyl)-2,3-dihydrobenzofuran-3-yl)-N,1-dimethyl-1H-pyrazolo[4,3-c]quinoline-8-carboxamide], the IC50 in the assay on wild-type HCT-116 cells was found to be 85 nM. Besides, in the assay with MTAP^-/- HCT-116 cells, the Selectivity amounted to 43 and the IC50 is 2 nM.

As for `CN(C(=O)c1cc2c3c(c(N)nc2cc1Cl)COC3)[C@@H]1COc2cc(C#Cc3cn(C)nc3Cl)ccc21` [Compound 68A, (S)-4-amino-7-chloro-N-(6-((3-chloro-1-methyl-1H-pyrazol-4-yl)ethynyl)-2,3-dihydrobenzofuran-3-yl)-N-methyl-1,3-dihydrofuro[3,4-c]quinoline-8-carboxamide], the IC50 in the assay with wild-type HCT-116 cells came to 312 nM; with MTAP^-/- HCT-116 cells, 6.6 nM. In the assay on MTAP^-/- HCT-116 cells, the Selectivity came to 47.

In the case of `CCn1cc(C#Cc2ccc3c(c2)OC[C@H]3N(C)C(=O)c2cc3c4c(c(N)nc3cc2Cl)COC4)cn1` [Compound 69A, (S)-4-amino-7-chloro-N-(6-((1-ethyl-1H-pyrazol-4-yl)ethynyl)-2,3-dihydrobenzof uran-3-yl)-N-methyl-1,3-dihydrofuro[3,4-c]quinoline-8-carboxamide], the IC50 in the assay on wild-type HCT-116 cells is 864 nM. Moreover, in the assay on MTAP^-/- HCT-116 cells, the Selectivity amounted to 173 and the IC50 amounted to 5 nM.

On to `CN(C(=O)c1cc2c3c(c(N)nc2cc1Cl)COC3)[C@@H]1COc2cc(C#Cc3cccnc3)ccc21` [Compound 70A, (S)-4-amino-7-chloro-N-methyl-N-(6-(pyridin-3-ylethynyl)-2,3-dihydrobenzofuran-3-yl)-1,3-dihydrofuro[3,4-c]quinoline-8-carboxamide], for which the IC50 in the assay with wild-type HCT-116 cells came to 475 nM. In the assay with MTAP^-/- HCT-116 cells, the Selectivity is 132 and the IC50 worked out at 3.6 nM.

With `Cc1c(C#Cc2ccc3c(c2)OC[C@H]3N(C)C(=O)c2cc3c4c(c(N)nc3cc2Cl)COC4)cnn1C1CC1` [Compound 71A, (S)-4-amino-7-chloro-N-(6-((1-cyclopropyl-5-methyl-1H-pyrazol-4-yl)ethynyl)-2,3-dihydrobenzofuran-3-yl)-N-methyl-1,3-dihydrofuro[3,4-c]quinoline-8-carboxamide], the results for the IC50 in the assay with wild-type HCT-116 cells and with MTAP^-/- HCT-116 cells were 674 nM and 14 nM, respectively. The Selectivity with MTAP^-/- HCT-116 cells is recorded as 48.
